What was measured:
[1] = target: GDP-bound KRAS wild-type protein (Homo sapiens, UniProt P01116); assay: Binding to KRAS by surface plasmon resonance (SPR), Single Cycle Kinetics; conditions: SPR, Single Cycle Kinetics, GDP-bound KRAS wild-type protein; read-out: KRAS KD
[2] = target: GDP-bound NRAS wild-type protein (Homo sapiens, UniProt P01111); assay: Binding to NRAS by surface plasmon resonance (SPR), Single Cycle Kinetics; conditions: SPR, GDP-bound NRAS wild-type protein vs GDP-bound KRAS wild-type protein
[3] = target: GDP-bound HRAS wild-type protein (Homo sapiens, UniProt P01112); assay: Binding to HRAS by surface plasmon resonance (SPR), Single Cycle Kinetics; conditions: SPR, GDP-bound HRAS wild-type protein vs GDP-bound KRAS wild-type protein
[4] = tested on: human lung cancer strain NCI-H441;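 note: cell proliferation inhibition after four days measured by CellTiter-Glo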

Sequence of GDP-bound KRAS wild-type protein (P01116 whole entry): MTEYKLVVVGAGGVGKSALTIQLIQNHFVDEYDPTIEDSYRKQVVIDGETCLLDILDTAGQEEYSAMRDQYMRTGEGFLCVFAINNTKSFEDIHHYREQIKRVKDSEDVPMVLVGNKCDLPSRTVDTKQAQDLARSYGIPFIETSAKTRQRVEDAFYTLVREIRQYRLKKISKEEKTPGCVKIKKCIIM
Sequence of GDP-bound NRAS wild-type protein (P01111 whole entry): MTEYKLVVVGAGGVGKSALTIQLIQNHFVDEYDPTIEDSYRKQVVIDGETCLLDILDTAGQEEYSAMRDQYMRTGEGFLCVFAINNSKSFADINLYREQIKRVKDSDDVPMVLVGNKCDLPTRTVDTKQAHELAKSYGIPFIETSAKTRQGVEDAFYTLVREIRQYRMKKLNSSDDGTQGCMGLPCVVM
Sequence of GDP-bound HRAS wild-type protein (P01112 whole entry): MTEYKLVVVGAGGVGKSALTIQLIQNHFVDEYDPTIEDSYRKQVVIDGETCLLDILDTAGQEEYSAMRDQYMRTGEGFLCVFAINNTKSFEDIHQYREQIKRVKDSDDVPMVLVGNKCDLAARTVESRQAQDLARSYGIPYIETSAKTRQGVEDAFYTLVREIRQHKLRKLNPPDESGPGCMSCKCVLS

Kd [1] | IC50 [4] | SMILES | NRAS/KRAS (ratio of KD value for NRAS to KD value for KRAS) [2] | HRAS/KRAS (ratio of KD value for HRAS to KD value for KRAS) [3]
0.33 nM | 9.8 nM | CCO[C@H](C)[C@@H]1NC(=O)[C@H](CC(C)C)N(C)C(=O)C[C@@H](C(=O)N(C)CC)N(C)C(=O)[C@H](C2CCCC2)N(C)C(=O)C2(CC(C)(C)C2)NC(=O)[C@@H]2C[C@H](C)CN2C(=O)[C@H](CCc2cc(F)c(C(F)(F)F)c(F)c2)NC(=O)CN(C)C(=O)[C@H](Cc2ccc(C)cc2)N2CC/C=C\C[C@@H](C2=O)N(C)C(=O)CN(C)C1=O [PP2414] | A (a compound having 10 or more and less than 20 is denoted as A) | A (a compound having 10 or more and less than 20 is denoted as A)
0.093 nM | 10.3 nM | CCCO[C@H](C)[C@@H]1NC(=O)[C@H](CC(C)C)N(C)C(=O)C[C@@H](C(=O)N(C)C)N(C)C(=O)[C@H](C2CCCC2)N(C)C(=O)C2(CC(C)(C)C2)NC(=O)[C@@H]2C[C@H](C)CN2C(=O)[C@H](CCc2ccc(C(F)(F)F)c(OC)c2)NC(=O)CN(C)C(=O)[C@H](Cc2ccc(C)cc2)N2CC/C=C\C[C@@H](C2=O)N(C)C(=O)CN(C)C1=O [PP2415] | AA (a compound having 20 or more is denoted as AA) | A (a compound having 10 or more and less than 20 is denoted as A)
0.29 nM | 33.1 nM | CCCO[C@H](C)[C@@H]1NC(=O)[C@H](CC(C)C)N(C)C(=O)C[C@@H](C(=O)N(C)CC)N(C)C(=O)[C@H](C2CCCC2)N(C)C(=O)C2(CC(C)(C)C2)NC(=O)[C@@H]2C[C@H](C)CN2C(=O)[C@H](CCc2ccc(C(F)(F)F)c(OC)c2)NC(=O)CN(C)C(=O)[C@H](Cc2ccc(C)cc2)N2CC/C=C\C[C@@H](C2=O)N(C)C(=O)CN(C)C1=O [PP2416] | A (a compound having 10 or more and less than 20 is denoted as A) | B (a compound having 3 or more and less than 10 is denoted as B)
0.3 nM | 15.9 nM | CCCO[C@H](C)[C@@H]1NC(=O)[C@H](CC(C)C)N(C)C(=O)C[C@@H](C(=O)N(C)CC)N(C)C(=O)[C@H](C2CCCC2)N(C)C(=O)C2(CC(C)(C)C2)NC(=O)[C@@H]2C[C@H](C)CN2C(=O)[C@H](CCc2cc(F)c(C(F)(F)F)c(F)c2)NC(=O)CN(C)C(=O)[C@H](Cc2ccc(C)cc2)N2CC/C=C\C[C@@H](C2=O)N(C)C(=O)CN(C)C1=O [PP2417] | A (a compound having 10 or more and less than 20 is denoted as A) | A (a compound having 10 or more and less than 20 is denoted as A)
0.97 nM | 132 nM | CCO[C@H](C)[C@@H]1NC(=O)[C@H](CC(C)C)N(C)C(=O)C[C@@H](C(=O)N(C)C)N(C)C(=O)[C@H](C2CCCC2)N(C)C(=O)C2(CC(C)(C)C2)NC(=O)[C@@H]2C[C@H](C)CN2C(=O)[C@H](CCc2ccc(C(F)(F)F)c(OC)c2)NC(=O)CN(C)C(=O)[C@H](Cc2ccc(C)cc2)N2CC/C=C\C[C@@H](C2=O)N(C)C(=O)[C@@H]2CCCN2C1=O [PP2418] | A (a compound having 10 or more and less than 20 is denoted as A) | B (a compound having 3 or more and less than 10 is denoted as B)
2 nM | 125 nM | CCO[C@H](C)[C@@H]1NC(=O)[C@H](CC(C)C)N(C)C(=O)C[C@@H](C(=O)N(C)CC)N(C)C(=O)[C@H](C2CCCC2)N(C)C(=O)C2(CC(C)(C)C2)NC(=O)[C@@H]2C[C@H](C)CN2C(=O)[C@H](CCc2ccc(C(F)(F)F)c(OC)c2)NC(=O)CN(C)C(=O)[C@H](Cc2ccc(C)cc2)N2CC/C=C\C[C@@H](C2=O)N(C)C(=O)[C@@H]2CCCN2C1=O [PP2419] | A (a compound having 10 or more and less than 20 is denoted as A) | A (a compound having 10 or more and less than 20 is denoted as A)
0.46 nM | 117 nM | CCOC[C@H]1C(=O)N[C@@H]([C@@H](C)OCC)C(=O)N(C)CC(=O)N(C)[C@H]2C/C=C\CCN(C2=O)[C@@H](Cc2ccc(C)cc2)C(=O)N(C)CC(=O)N[C@@H](CCc2cc(F)c(C(F)(F)F)c(F)c2)C(=O)N2C[C@@H](C)C[C@H]2C(=O)NC2(CC(C)(C)C2)C(=O)N(C)[C@@H](C2CCCC2)C(=O)N(C)[C@H](C(=O)N(C)CC)CC(=O)N1C [PP2422] | A (a compound having 10 or more and less than 20 is denoted as A) | A (a compound having 10 or more and less than 20 is denoted as A)
0.37 nM | 50.9 nM | CCCOC[C@H]1C(=O)N[C@@H]([C@@H](C)OCC)C(=O)N(C)CC(=O)N(C)[C@H]2C/C=C\CCN(C2=O)[C@@H](Cc2ccc(C)cc2)C(=O)N(C)CC(=O)N[C@@H](CCc2cc(F)c(C(F)(F)F)c(F)c2)C(=O)N2C[C@@H](C)C[C@H]2C(=O)NC2(CC(C)(C)C2)C(=O)N(C)[C@@H](C2CCCC2)C(=O)N(C)[C@H](C(=O)N(C)CC)CC(=O)N1C [PP2424] | A (a compound having 10 or more and less than 20 is denoted as A) | A (a compound having 10 or more and less than 20 is denoted as A)

Further lines, the compound ahead of its results:

SMILES | Kd [1] | IC50 [4] | NRAS/KRAS (ratio of KD value for NRAS to KD value for KRAS) [2] | HRAS/KRAS (ratio of KD value for HRAS to KD value for KRAS) [3]
CCOC[C@H]1C(=O)N[C@@H]([C@@H](C)CC)C(=O)N(C)CC(=O)N(C)[C@H]2C/C=C\CCN(C2=O)[C@@H](Cc2ccc(C)cc2)C(=O)N(C)CC(=O)N[C@@H](CCc2cc(F)c(C(F)(F)F)c(F)c2)C(=O)N2C[C@@H](C)C[C@H]2C(=O)NC2(CC(C)(C)C2)C(=O)N(C)[C@@H](C2CCCC2)C(=O)N(C)[C@H](C(=O)N(CC)CC)CC(=O)N1C [PP2407] | 0.5 nM | 60.1 nM | A (a compound having 10 or more and less than 20 is denoted as A) | A (a compound having 10 or more and less than 20 is denoted as A)
CCOC[C@H]1C(=O)N[C@@H]([C@@H](C)CC)C(=O)N(C)CC(=O)N(C)[C@H]2C/C=C\CCN(C2=O)[C@@H](Cc2ccc(C)cc2)C(=O)N(C)CC(=O)N[C@@H](CCc2cc(F)c(C(F)(F)F)c(F)c2)C(=O)N2C[C@H](OCC)C[C@H]2C(=O)NC2(CC(C)(C)C2)C(=O)N(C)[C@@H](C2CCCC2)C(=O)N(C)[C@H](C(=O)N(CC)CC)CC(=O)N1C [PP2408] | 0.23 nM | 21.3 nM | A (a compound having 10 or more and less than 20 is denoted as A) | A (a compound having 10 or more and less than 20 is denoted as A)
CC[C@H](C)[C@@H]1NC(=O)[C@H](CC(C)C)N(C)C(=O)C[C@@H](C(=O)N(C)C)N(C)C(=O)[C@H](C2CCCC2)N(C)C(=O)C2(CC(C)(C)C2)NC(=O)[C@@H]2C[C@H](C)CN2C(=O)[C@H](CCc2ccc(C(F)(F)F)c(OC)c2)NC(=O)CN(C)C(=O)[C@H](Cc2ccc(C)cc2)N2CC/C=C\C[C@@H](C2=O)N(C)C(=O)[C@@H]2CCCN2C1=O [PP2409] | 0.48 nM | 31.9 nM | A (a compound having 10 or more and less than 20 is denoted as A) | B (a compound having 3 or more and less than 10 is denoted as B)
CC[C@H](C)[C@@H]1NC(=O)[C@H](CC(C)C)N(C)C(=O)C[C@@H](C(=O)N(C)CC)N(C)C(=O)[C@H](C2CCCC2)N(C)C(=O)C2(CC(C)(C)C2)NC(=O)[C@@H]2C[C@H](C)CN2C(=O)[C@H](CCc2ccc(C(F)(F)F)c(OC)c2)NC(=O)CN(C)C(=O)[C@H](Cc2ccc(C)cc2)N2CC/C=C\C[C@@H](C2=O)N(C)C(=O)[C@@H]2CCCN2C1=O [PP2410] | 1.1 nM | 108 nM | A (a compound having 10 or more and less than 20 is denoted as A) | A (a compound having 10 or more and less than 20 is denoted as A)
CC[C@H](C)[C@@H]1NC(=O)[C@H](CC(C)C)N(C)C(=O)C[C@@H](C(=O)N(C)CC)N(C)C(=O)[C@H](C2CCCC2)N(C)C(=O)C2(CC(C)(C)C2)NC(=O)[C@@H]2C[C@H](C)CN2C(=O)[C@H](CCc2cc(F)c(C(F)(F)F)c(F)c2)NC(=O)CN(C)C(=O)[C@H](Cc2ccc(C)cc2)N2CC/C=C\C[C@@H](C2=O)N(C)C(=O)[C@@H]2CCCN2C1=O [PP2411] | 1 nM | 91.4 nM | A (a compound having 10 or more and less than 20 is denoted as A) | A (a compound having 10 or more and less than 20 is denoted as A)
CCO[C@H](C)[C@@H]1NC(=O)[C@H](CC(C)C)N(C)C(=O)C[C@@H](C(=O)N(C)C)N(C)C(=O)[C@H](C2CCCC2)N(C)C(=O)C2(CC(C)(C)C2)NC(=O)[C@@H]2C[C@H](C)CN2C(=O)[C@H](CCc2ccc(C(F)(F)F)c(OC)c2)NC(=O)CN(C)C(=O)[C@H](Cc2ccc(C)cc2)N2CC/C=C\C[C@@H](C2=O)N(C)C(=O)CN(C)C1=O [PP2412] | 0.15 nM | 21 nM | A (a compound having 10 or more and less than 20 is denoted as A) | B (a compound having 3 or more and less than 10 is denoted as B)
CCO[C@H](C)[C@@H]1NC(=O)[C@H](CC(C)C)N(C)C(=O)C[C@@H](C(=O)N(C)CC)N(C)C(=O)[C@H](C2CCCC2)N(C)C(=O)C2(CC(C)(C)C2)NC(=O)[C@@H]2C[C@H](C)CN2C(=O)[C@H](CCc2ccc(C(F)(F)F)c(OC)c2)NC(=O)CN(C)C(=O)[C@H](Cc2ccc(C)cc2)N2CC/C=C\C[C@@H](C2=O)N(C)C(=O)CN(C)C1=O [PP2413] | 0.25 nM | 115 nM | A (a compound having 10 or more and less than 20 is denoted as A) | A (a compound having 10 or more and less than 20 is denoted as A)

— US20240158446A1, “CYCLIC COMPOUND HAVING SELECTIVE INHIBITORY ACTION ON KRAS OVER HRAS AND NRAS” (CHUGAI SEIYAKU KABUSHIKI KAISHA, priority 2021, published 2024)
